Biological target: T1, USP25 (USP25-His6, Boston Biochem E-546) (Homo sapiens, UniProt Q9UHP3)
T1 construct: His6; purchased Boston Biochem E-546
T1 sequence (Q9UHP3 1-1055): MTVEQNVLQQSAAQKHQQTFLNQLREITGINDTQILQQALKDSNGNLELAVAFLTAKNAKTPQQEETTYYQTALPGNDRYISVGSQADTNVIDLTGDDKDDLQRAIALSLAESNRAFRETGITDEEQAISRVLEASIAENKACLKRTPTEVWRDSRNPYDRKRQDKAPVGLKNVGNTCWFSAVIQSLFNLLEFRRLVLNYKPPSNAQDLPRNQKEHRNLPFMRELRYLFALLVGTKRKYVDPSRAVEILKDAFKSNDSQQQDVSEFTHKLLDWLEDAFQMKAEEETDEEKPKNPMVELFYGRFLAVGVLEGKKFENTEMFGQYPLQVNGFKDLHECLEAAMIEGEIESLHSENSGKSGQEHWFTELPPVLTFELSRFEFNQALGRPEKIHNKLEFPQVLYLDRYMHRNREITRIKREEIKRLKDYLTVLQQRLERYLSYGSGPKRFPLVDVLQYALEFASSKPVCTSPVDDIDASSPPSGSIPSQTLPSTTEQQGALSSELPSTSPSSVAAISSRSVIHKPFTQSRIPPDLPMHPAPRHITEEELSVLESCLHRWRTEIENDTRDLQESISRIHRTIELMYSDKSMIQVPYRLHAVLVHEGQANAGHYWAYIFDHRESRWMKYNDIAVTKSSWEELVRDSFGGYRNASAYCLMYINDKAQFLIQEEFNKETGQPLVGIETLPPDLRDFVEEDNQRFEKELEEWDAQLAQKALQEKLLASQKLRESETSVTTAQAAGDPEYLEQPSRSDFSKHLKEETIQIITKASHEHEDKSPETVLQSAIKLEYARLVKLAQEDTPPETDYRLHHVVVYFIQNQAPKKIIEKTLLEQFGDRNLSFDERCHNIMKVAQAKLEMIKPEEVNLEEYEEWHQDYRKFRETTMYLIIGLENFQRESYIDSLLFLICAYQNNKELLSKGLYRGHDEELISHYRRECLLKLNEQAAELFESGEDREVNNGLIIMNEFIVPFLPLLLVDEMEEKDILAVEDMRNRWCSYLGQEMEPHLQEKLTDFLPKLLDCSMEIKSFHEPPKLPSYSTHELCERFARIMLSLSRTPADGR
Assay: Ubiquitin-Rhodamine 110 Assay for USP25 Activity, Example A-2
Type: biochemical
Settings: Ubiquitin-Rhodamine 110 assay, Example A-2; read-out: USP25 A-2 IC50 range
Procedure, shortened: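 Steps: compound dilutions (top 25 μM, 3-fold, 10 points) were preincubated 30 min with 75 pM USP25-His6; 25 nM Ub-Rh110 substrate was added under initial-velocity conditions; after 45 min at room temperature, 10 mM citric acid stopped the reaction before fluorescence reading.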

| SMILES | IC50 |
| --- | --- |
| COC[C@@H]1CN(c2cc(F)c3c(c2)OC[C@H](NC(=O)c2sc4nc(C)ccc4c2N)C3)C[C@@H]1N [Example 250, 3-amino-N-[(3R)-7-[(3R,4R)-3-amino-4-(methoxymethyl)pyrrolidin-1-yl]-5-fluoro-3,4-dihydro-2H-1-benzopyran-3-yl]-6-methylthieno[2,3-b]pyridine-2-carboxamide] | 200 to 2000 nM |
| Cc1ccc2c(N)c(C(=O)N[C@H]3COc4cc(N5CC[C@@H]6CNCC[C@@H]65)ccc4C3)sc2n1 [Example 236, N-[(3R)-7-[(3aR,7aS)-octahydro-1H-pyrrolo[3,2-c]pyridin-1-yl]-3,4-dihydro-2H-1-benzopyran-3-yl]-3-amino-6-methylthieno[2,3-b]pyridine-2-carboxamide] | 50 to 200 nM |
| Cc1ccc2c(N)c(C(=O)N[C@H]3COc4cc(N5CC[C@@H]6CC[C@H](N)C[C@@H]65)ccc4C3)sc2n1 [Example 234, N-[(3R)-7-[(3aS,6S,7aS)-6-amino-octahydro-1H-indol-1-yl]-3,4-dihydro-2H-1-benzopyran-3-yl]-3-amino-6-methylthieno[2,3-b]pyridine-2-carboxamide] | 50 to 200 nM |
| CN[C@H]1CN(c2ccc3c(c2)OC[C@H](NC(=O)c2sc4nc(C)ccc4c2N)C3)C[C@@H]1OC [Example 212, 3-amino-N-[(3R)-7-[(3S,4S)-3-methoxy-4-(methylamino)pyrrolidin-1-yl]-3,4-dihydro-2H-1-benzopyran-3-yl]-6-methylthieno[2,3-b]pyridine-2-carboxamide] | 200 to 2000 nM |
| CCO[C@H]1CN(c2ccc3c(n2)CC[C@H](NC(=O)c2sc4nc(C)ccc4c2N)C3)C[C@H]1N [Example 255, 3-amino-N-[(6S)-2-[(3R,4S)-3-amino-4-ethoxypyrrolidin-1-yl]-5,6,7,8-tetrahydroquinolin-6-yl]-6-methylthieno[2,3-b]pyridine-2-carboxamide] | > 2000 nM |
| COC[C@@H]1C[C@@H](N)CN1c1ccc2c(c1)OC[C@H](NC(=O)c1sc3nc(C)ccc3c1N)C2 [Example 260, 3-amino-N-[(3R)-7-[(25,4R)-4-amino-2-(methoxymethyl)pyrrolidin-1-yl]-3,4-dihydro-2H-1-benzopyran-3-yl]-6-methylthieno[2,3-b]pyridine-2-carboxamide] | 1 to 50 nM |
| Cc1ccc2c(N)c(C(=O)N[C@H]3COc4cc(N5C[C@H](N)CC[C@@H]5C(F)(F)F)ccc4C3)sc2n1 [Example 244, 3-amino-N-[(3R)-7-[(2R,5R)-5-amino-2-(trifluoromethyl)piperidin-1-yl]-3,4-dihydro-2H-1-benzopyran-3-yl]-6-methylthieno[2,3-b]pyridine-2-carboxamide] | 1 to 50 nM |
| CO[C@H]1CN(c2ccc3c(c2)CC[C@H](NC(=O)c2cnc4c(c2)[C@@H]2C[C@@H]2CN4)C3)C[C@@H]1N [Example 189, (6aS,7aR)-N-[(2S)-6-[(3S,4S)-3-amino-4-methoxypyrrolidin-1-yl]-1,2,3,4-tetrahydronaphthalen-2-yl]-5H,6H,6aH,7H,7aH-cyclopropa[c]1,8-naphthyridine-2-carboxamide] | > 2000 nM |
| Cc1ccc2c(N)c(C(=O)N[C@H]3COc4cc(N5C[C@H](N)C(F)(F)C5)ccc4C3)sc2n1 [Example 256, 3-amino-N-[(3R)-7-[(4S)-4-amino-3,3-difluoropyrrolidin-1-yl]-3,4-dihydro-2H-1-benzopyran-3-yl]-6-methylthieno[2,3-b]pyridine-2-carboxamide] | 200 to 2000 nM |
| Cc1ccc2c(N)c(C(=O)N[C@H]3COc4cc(N5C[C@@H]6NCCC(F)(F)[C@@H]6C5)ccc4C3)sc2n1 [Example 237, N-[(3R)-7-[(4aR,7aR)-4,4-difluoro-octahydro-1H-pyrrolo[3,4-b]pyridin-6-yl]-3,4-dihydro-2H-1-benzopyran-3-yl]-3-amino-6-methylthieno[2,3-b]pyridine-2-carboxamide] | 200 to 2000 nM |
| N#Cc1c(N2CC3CCC(C2)N3)cc(F)c2c1CC[C@@H](NC(=O)c1cnc3c(c1)[C@@H]1C[C@@H]1CN3)C2 [Example 197, (6aS,7aR)-N-[(2R)-5-cyano-6-{3,8-diazabicyclo[3.2.1]octan-3-yl}-8-fluoro-1,2,3,4-tetrahydronaphthalen-2-yl]-5H,6H,6aH,7H,7aH-cyclopropa[c]1,8-naphthyridine-2-carboxamide] | > 2000 nM |
| Cc1ccc2c(N)c(C(=O)N[C@H]3COc4cc(N5CCO[C@@H]6CNC[C@@H]65)ccc4C3)sc2n1 [Example 185, N-[(3R)-7-[(4aS,7aR)-octahydropyrrolo[3,4-b]morpholin-4-yl]-3,4-dihydro-2H-1-benzopyran-3-yl]-3-amino-6-methylthieno[2,3-b]pyridine-2-carboxamide] | 50 to 200 nM |
| CO[C@@H]1CN(c2ccc3c(n2)CC[C@H](NC(=O)c2sc4nc(C)ccc4c2N)C3)C[C@@]1(C)N [Example 240, 3-amino-N-[(6S)-2-[(3R,4R)-3-amino-4-methoxy-3-methylpyrrolidin-1-yl]-5,6,7,8-tetrahydroquinolin-6-yl]-6-methylthieno[2,3-b]pyridine-2-carboxamide] | > 2000 nM |
| CO[C@H]1CN(c2cc3c(c(F)c2C#N)C[C@@H](NC(=O)c2sc4nc(C)ccc4c2N)CO3)C[C@@H]1N [Example 200] | 50 to 200 nM |
| Cc1ccc2c(N)c(C(=O)N[C@H]3COc4cc(N5C[C@@H](N)C6(COC6)C5)ccc4C3)sc2n1 [Example 259, 3-amino-N-[(3R)-7-[(8S)-8-amino-2-oxa-6-azaspiro[3.4]octan-6-yl]-3,4-dihydro-2H-1-benzopyran-3-yl]-6-methylthieno[2,3-b]pyridine-2-carboxamide] | 200 to 2000 nM |

— patent US11524966B1 (Valo Early Discovery, Inc., priority 2017, dated 2022)
